This assay concerns the target T1, pancreatic lipase (Sus scrofa, UniProt P00591).
T1 construct: gene PNLIP
T1 sequence (P00591 1-450): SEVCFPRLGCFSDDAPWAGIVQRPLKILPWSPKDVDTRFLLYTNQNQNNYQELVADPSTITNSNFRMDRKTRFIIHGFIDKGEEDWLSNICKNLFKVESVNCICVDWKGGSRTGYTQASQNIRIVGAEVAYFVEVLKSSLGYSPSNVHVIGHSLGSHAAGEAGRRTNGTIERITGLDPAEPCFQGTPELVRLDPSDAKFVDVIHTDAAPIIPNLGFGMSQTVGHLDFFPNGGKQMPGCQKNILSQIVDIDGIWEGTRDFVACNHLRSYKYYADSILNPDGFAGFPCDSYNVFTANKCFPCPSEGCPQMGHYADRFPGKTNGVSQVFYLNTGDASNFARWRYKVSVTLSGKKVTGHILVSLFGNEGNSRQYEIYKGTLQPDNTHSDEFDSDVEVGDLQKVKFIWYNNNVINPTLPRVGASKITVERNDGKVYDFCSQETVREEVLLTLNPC
Briefly: p-nitrophenyl butyrate hydrolysis by porcine pancreatic lipase (type II), absorbance at […] nm. Type of assay: biochemical.

Like-named read-outs stand apart in the source and are kept apart here.

For orientation: IC50 means the concentration needed to halve the response being measured. In turn, `COc1cc(CCc2ccccc2)oc(=O)c1` [DDK, dihydro-5,6-dehydrokawain] had an IC50 of 36.5 µM.
Turning to `COc1cc(/C=C/c2ccccc2)oc(=O)c1` [DK, 5,6-dehydrokawain], under “read-out: IC50 (converted)”, the IC50 is 326 µM.
With `O=c1cc(O)cc(/C=C/c2ccc(O)c(O)c2)o1` [hispidin, 6-(3,4-dihydroxylstyryl)-4-hydroxy-2-pyrone], the IC50 (read-out: IC50 (converted)) is 76.4 µM.

These data come from paper PMC6270905, “Anti-Obesity Effects of Hispidin and Alpinia zerumbet Bioactives in 3T3-L1 Adipocytes” (Molecules, 2014).
